Test results: patent US9980943B2, “Methods of treating muscular dystrophy” (BOARD OF REGENTS OF THE NEVADA SYSTEM OF HIGHER EDUCATION, …, priority 2013, dated 2018)

Tests used:
Type in all cases: cell-based, mouse
[1] = tested on: α7 integrin (LacZ reporter in α7βgal+/− myoblasts); assay: Myoblast α7+/LacZ integrin FDG assay (Burkin assay in myoblasts, 96-well); conditions: α7+/LacZ myoblasts, 96-well
[2] = tested on: β-galactosidase in CMV-LacZ C2C12 myotubes; assay: CMV-LacZ secondary screen in C2C12 myotubes (β-Gal stabilizing assay); conditions: CMV-LacZ C2C12 myotubes, 96-well format
From the text: In order to determine compounds that acted to stabilize β-gal in myogenic cells, a CMV-LacZ C2C12 cell line was used in a secondary screen. The EGFP gene from the pEGFP (Clontech) vector was replaced by LACZ PCR product with digests of the vector/PCR product performed using EcoRI (NEB) and NotI (NEB) and ligated using T4 DNA Ligase (NEB) following standard procedures to produce the CMV-LACZ vector. The LACZ gene was generated by PCR from the pBK-RSV (Stratagene) vector using primers LACZ EcoRI F- and LACZ NotI R-. The CMV-LACZ vector was then digested with AfIII (NEB) to linearize the construct, which was then transfected in C2C12 myoblasts using Lipofectamine 2000 (Invitrogen) following the manufacturer's instructions. […] Clonal lines were selected and screened for βgal levels using the myoblast FDG assay.
The assays were used the original 96-well format and new dose-response curves for myoblasts (N=3-6 replicates for each data point), myotubes (N=3-6 replicates for data point), and CMV-LacZ secondary assay (N=2 replicates for each data point) using concentrations of 0.5 μM, 1 μM, 5 μM, 10 μM, 20 μM, and 40 μM (Tables 9-16).

[3] = tested on: α7 integrin (LacZ reporter in α7+/LacZ myotubes); assay: Myotube α7 integrin FDG assay (Burkin assay in myotubes, 96-well); conditions: for dose-response curve in myotubes: hits of Prestwick/Microsource screens

## O=C(CSc1nnc(C2CC2)n1C1CC1)c1cccs1 [MLS002161757-01]
[1]; 0.5 uM
  Burkin Assay in Myoblasts, value relative to DMSO: 0.9614
[1]; 1 uM
  Burkin Assay in Myoblasts, value relative to DMSO: 0.892
[1]; 5 uM
  Burkin Assay in Myoblasts, value relative to DMSO: 0.9113
[1]; 10 uM
  Burkin Assay in Myoblasts, value relative to DMSO: 0.9135
[1]; 20 uM
  Burkin Assay in Myoblasts, value relative to DMSO: 1.009
[1]; 40 uM
  Burkin Assay in Myoblasts, value relative to DMSO: 1.151
[2]; 5 uM
  CMV-LACZ in Myotubes (β-galactosidase activity relative to DMSO): 0.919
[2]; 10 uM
  CMV-LACZ in Myotubes (β-galactosidase activity relative to DMSO): 1.102
[2]; 20 uM
  CMV-LACZ in Myotubes (β-galactosidase activity relative to DMSO): 1.153
[2]; 40 uM
  CMV-LACZ in Myotubes (β-galactosidase activity relative to DMSO): 1.256
[3]; 0.5 uM
  Burkin Assay in Myotubes (signal relative to DMSO): 0.8459
[3]; 1 uM
  Burkin Assay in Myotubes (signal relative to DMSO): 1.07
[3]; 5 uM
  Burkin Assay in Myotubes (signal relative to DMSO): 1.092
[3]; 10 uM
  Burkin Assay in Myotubes (signal relative to DMSO): 1.06
[3]; 20 uM
  Burkin Assay in Myotubes (signal relative to DMSO): 0.9795
[3]; 40 uM
  Burkin Assay in Myotubes (signal relative to DMSO): 1.146

## COCCN(CC(=O)Nc1cccc(C)c1C)C(=O)C1CCN(S(=O)(=O)c2ccccc2)CC1 [MLS002156278-01]
[1]; 0.5 uM
  Burkin Assay in Myoblasts, value relative to DMSO: 0.8597
[1]; 1 uM
  Burkin Assay in Myoblasts, value relative to DMSO: 0.9642
[1]; 5 uM
  Burkin Assay in Myoblasts, value relative to DMSO: 1.01
[1]; 10 uM
  Burkin Assay in Myoblasts, value relative to DMSO: 0.9653
[1]; 20 uM
  Burkin Assay in Myoblasts, value relative to DMSO: 0.8604
[1]; 40 uM
  Burkin Assay in Myoblasts, value relative to DMSO: 0.8246
[2]; 5 uM
  CMV-LACZ in Myotubes (β-galactosidase activity relative to DMSO): 0.8694
[2]; 10 uM
  CMV-LACZ in Myotubes (β-galactosidase activity relative to DMSO): 1.096
[2]; 20 uM
  CMV-LACZ in Myotubes (β-galactosidase activity relative to DMSO): 0.9667
[2]; 40 uM
  CMV-LACZ in Myotubes (β-galactosidase activity relative to DMSO): 1.031
[3]; 0.5 uM
  Burkin Assay in Myotubes (signal relative to DMSO): 1.005
[3]; 1 uM
  Burkin Assay in Myotubes (signal relative to DMSO): 0.9637
[3]; 5 uM
  Burkin Assay in Myotubes (signal relative to DMSO): 0.6908
[3]; 10 uM
  Burkin Assay in Myotubes (signal relative to DMSO): 0.9924
[3]; 20 uM
  Burkin Assay in Myotubes (signal relative to DMSO): 0.9719
[3]; 40 uM
  Burkin Assay in Myotubes (signal relative to DMSO): 1.025

## CCCC(=O)[O-].[Na+] [sodium butyrate, reference compound]
[3]; treatments of ~1.5 mM, preliminary screens
  β-galactosidase levels: increase β-galactosidase levels

## CC(C)CCC[C@@H](C)[C@H]1CC[C@H]2[C@@H]3CC(=O)[C@H]4C[C@@H](O)CC[C@]4(C)[C@H]3CC[C@]12C [5alpha-cholestan-3β-ol-6-one, reference compound]
[3]
  dose-response curve in myotubes: positive dose-response curve

## c1ccc(-c2ccccn2)nc1 [2,2-Dipyridyl, reference compound]
[3]
  dose-response curve in myotubes: positive dose-response curves

## Cc1cc(C2CCCCC2)n(O)c(=O)c1 [Ciclopirox ethanolamine, reference compound]
[3]
  dose-response curve in myotubes: positive dose-response curves
